Test results: PubChem BioAssay (NCI)
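Briefly, cells in 96-well plates were exposed to five compound concentrations for 48 h, and endpoints were estimated by linear interpolation. TGI denotes the concentration required for complete inhibition of growth.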

Legend:
Experiment in all cases: inhibition of tumour cell growth, NCI panel, 48 h
[1] = system: MDA-N
[2] = system: SK-MEL-5 melanoma
[3] = system: UACC-257 melanoma
[4] = system: SNB-75 CNS
[5] = system: SN12C renal
[6] = system: UACC-62 melanoma
[7] = system: HCT-15 colon
[8] = system: SNB-19 CNS
[9] = system: NCI-H23 lung
[10] = system: MCF7 breast
[11] = system: CAKI-1 renal
[12] = system: SF-295 CNS
[13] = system: T-47D breast

Structure (SMILES): Cc1cc(=O)oc2cc(OCC(O)COC(C)C)ccc12 (configuration not stated)
- TGI [1]: > 100 µM
- TGI [2]: > 100 µM
- TGI [3]: > 100 µM
- TGI [4]: > 100 µM
- TGI [5]: > 100 µM
- TGI [6]: > 100 µM
- TGI [7]: > 100 µM
- TGI [8]: > 100 µM
- TGI [9]: > 100 µM
- TGI [10]: > 100 µM
- TGI [11]: > 100 µM
- TGI [12]: > 100 µM
- TGI [13]: > 100 µM

Structure (SMILES): O=C1CCc2ccc(O)c(c2)Oc2ccc(cc2)C(Sc2ccccc2)CCO1 (configuration not stated)
- TGI [1]: 34.8 µM
- TGI [2]: 24.8 µM
- TGI [3]: 32.6 µM
- TGI [4]: 28.4 µM
- TGI [5]: 29.7 µM
- TGI [6]: 32.5 µM
- TGI [7]: 29.9 µM
- TGI [8]: 39.8 µM
- TGI [9]: 27.3 µM
- TGI [10]: 43.8 µM
- TGI [11]: 41.1 µM
- TGI [12]: 38.2 µM
- TGI [13]: 54.1 µM

Structure (SMILES): CC(C)CC(N)C(=O)Nc1ccc2ccccc2c1 (configuration not stated)
- TGI [1]: > 100 µM
- TGI [2]: > 100 µM
- TGI [3]: > 100 µM
- TGI [4]: > 100 µM
- TGI [5]: > 100 µM
- TGI [6]: > 100 µM
- TGI [7]: > 100 µM
- TGI [8]: > 100 µM
- TGI [9]: > 100 µM
- TGI [10]: > 100 µM
- TGI [11]: > 100 µM
- TGI [12]: > 100 µM
- TGI [13]: > 100 µM

Structure (SMILES): COc1ccc2c(c1)CCCN1CCc3ccccc3C21 (configuration not stated)
- TGI [1]: 52.9 µM
- TGI [2]: > 100 µM
- TGI [3]: > 100 µM
- TGI [4]: 66.1 µM
- TGI [5]: 77.7 µM
- TGI [6]: 83.1 µM
- TGI [7]: > 100 µM
- TGI [8]: > 100 µM
- TGI [9]: > 100 µM
- TGI [10]: > 100 µM
- TGI [11]: > 100 µM
- TGI [12]: 79.1 µM
- TGI [13]: > 100 µM

Structure (SMILES): COc1cccc(/C=C2\S/C(=N/Nc3nc(C)c(C)s3)NC2=O)c1O
- TGI [1]: > 100 µM
- TGI [2]: > 100 µM
- TGI [3]: > 100 µM
- TGI [4]: > 100 µM
- TGI [5]: > 100 µM
- TGI [6]: > 100 µM
- TGI [7]: > 100 µM
- TGI [8]: > 100 µM
- TGI [9]: > 100 µM
- TGI [10]: > 100 µM
- TGI [11]: > 100 µM
- TGI [12]: > 100 µM
- TGI [13]: 73.8 µM

Structure (SMILES): O=C(/C=C/c1ccccc1)Nc1ccccc1SCCCCl
- TGI [1]: 28.6 µM
- TGI [2]: > 91.4 µM
- TGI [3]: > 100 µM
- TGI [4]: > 87.1 µM
- TGI [5]: 98.5 µM
- TGI [6]: > 72.7 µM
- TGI [7]: > 100 µM
- TGI [8]: > 95.4 µM
- TGI [9]: 40.7 µM
- TGI [10]: > 100 µM
- TGI [11]: > 100 µM
- TGI [12]: 49.4 µM
- TGI [13]: > 85.8 µM

Structure (SMILES): COc1ccccc1C(O)[C@@H]1C[C@@H]2[C@H]3CC[C@@](C)([C@@H]2O1)C3(C)C (some centres not stated)
- TGI [1]: 32 µM
- TGI [2]: 31.6 µM
- TGI [3]: 39 µM
- TGI [4]: 37.7 µM
- TGI [5]: 30.3 µM
- TGI [6]: 32.8 µM
- TGI [7]: 57.7 µM
- TGI [8]: 39 µM
- TGI [9]: 50.5 µM
- TGI [10]: 41.7 µM
- TGI [11]: 56.4 µM
- TGI [12]: 34.6 µM
- TGI [13]: 41.3 µM

Structure (SMILES): CCOC(=O)NC(Nc1ccc(F)cc1)(C(=O)OCC)C(F)(F)F (configuration not stated)
- TGI [1]: > 100 µM
- TGI [2]: > 100 µM
- TGI [3]: > 100 µM
- TGI [4]: > 100 µM
- TGI [5]: > 100 µM
- TGI [6]: > 100 µM
- TGI [7]: > 100 µM
- TGI [8]: > 100 µM
- TGI [9]: > 100 µM
- TGI [10]: > 100 µM
- TGI [11]: > 100 µM
- TGI [12]: > 100 µM
- TGI [13]: > 100 µM

Structure (SMILES): CC1=C(O)c2ccccc2C(=O)C1=O
- TGI [1]: > 100 µM
- TGI [2]: > 65.1 µM
- TGI [3]: > 100 µM
- TGI [4]: > 100 µM
- TGI [5]: > 100 µM
- TGI [6]: > 100 µM
- TGI [7]: > 100 µM
- TGI [8]: > 100 µM
- TGI [9]: > 100 µM
- TGI [10]: > 100 µM
- TGI [11]: > 100 µM
- TGI [12]: > 100 µM
- TGI [13]: > 100 µM

Structure (SMILES): O=[S@]1c2ccc3ccccc3c2N[C@@H]2[C@H]1[C@H]1C=C[C@@H]2C1
- TGI [1]: 60.8 µM
- TGI [2]: > 100 µM
- TGI [3]: > 100 µM
- TGI [4]: 73.4 µM
- TGI [5]: > 100 µM
- TGI [6]: > 100 µM
- TGI [7]: > 100 µM
- TGI [8]: > 100 µM
- TGI [9]: > 100 µM
- TGI [10]: > 100 µM
- TGI [11]: > 100 µM
- TGI [12]: > 100 µM
- TGI [13]: > 100 µM

Structure (SMILES): C=CC1CN(C(=O)OCC)N(C(=O)OCC)C1CCc1ccccc1 (configuration not stated)
- TGI [1]: > 100 µM
- TGI [2]: > 100 µM
- TGI [3]: > 100 µM
- TGI [4]: > 100 µM
- TGI [5]: > 100 µM
- TGI [6]: > 100 µM
- TGI [7]: > 100 µM
- TGI [8]: > 100 µM
- TGI [9]: > 100 µM
- TGI [10]: > 100 µM
- TGI [11]: > 100 µM
- TGI [12]: > 100 µM
- TGI [13]: > 100 µM

Structure (SMILES): CC(C)=CCC[C@@H](C)C1=C(O)C(Nc2ccccc2Cl)=C(C)C(=O)C1=O
- TGI [1]: > 75 µM
- TGI [2]: 42.9 µM
- TGI [3]: > 75 µM
- TGI [4]: > 52.3 µM
- TGI [5]: > 75 µM
- TGI [6]: 36 µM
- TGI [7]: > 75 µM
- TGI [8]: > 75 µM
- TGI [9]: 55.1 µM
- TGI [10]: > 75 µM
- TGI [11]: > 55 µM
- TGI [12]: 34.2 µM
- TGI [13]: 62.7 µM

Structure (SMILES): CCCCc1ccc(Nc2nc(OC)c3ncn(C4CC(O)C(CO)O4)c3n2)cc1 (configuration not stated)
- TGI [1]: 30 µM
- TGI [2]: 33.8 µM
- TGI [3]: 34.6 µM
- TGI [4]: 36.1 µM
- TGI [5]: 26.5 µM
- TGI [6]: 33.8 µM
- TGI [7]: 34.3 µM
- TGI [8]: 34.3 µM
- TGI [9]: 35.3 µM
- TGI [10]: 29.4 µM
- TGI [11]: 3.49 µM
- TGI [12]: 36.5 µM
- TGI [13]: 43.1 µM

Structure (SMILES): [B-][P+](CC[P+]1([B-])[C@@H](C)[C@@H](O)[C@H](O)[C@@H]1C)(c1ccccc1)c1ccccc1OC (some centres not stated)
- TGI [1]: 29.6 µM
- TGI [2]: 29.3 µM
- TGI [3]: 20.3 µM
- TGI [4]: 28.3 µM
- TGI [5]: 26.2 µM
- TGI [6]: 28.1 µM
- TGI [7]: 33.3 µM
- TGI [8]: 30.9 µM
- TGI [9]: 31.3 µM
- TGI [10]: 35.6 µM
- TGI [11]: 30.4 µM
- TGI [12]: 29.4 µM
- TGI [13]: 37.3 µM
